In ChEMBL document CHEMBL2331555 (ACS Med Chem Lett, 2013):
Values after ≈ are worked out from the molar mass of the structure shown.

Tests used:
in vitro = conditions: dog, MDCK
in vivo [1] = conditions: rat, po
in vivo [2] = conditions: rat

Row | Structure (SMILES) | solubility kinetic (physchem) [µM] | Papp (in vitro) [×10⁻⁶ cm/s] | bioavailability (in vivo [1]) [%] | Vd (in vivo [2]) [L/kg]
1 | CC(=O)N1CCC(n2c(=O)n(C)c3cnc4ccc(-c5ccc(C)nc5)nc4c32)CC1 | 455 (≈ 190 µg/mL) | 19.5 | – | –
2 | COc1ccc(-c2ccc3ncc4c(c3n2)n([C@H]2CC[C@H](O)CC2)c(=O)n4C)cn1 | 22.2 (≈ 9 µg/mL) | 14.3 | – | –
3 | Cc1ccc(-c2ccc3ncc4c(c3n2)n(C2CCN(C(=O)C(C)(C)O)CC2)c(=O)n4C)cn1 | – | 21.9 | – | –
4 | C[C@H](O)C(=O)N1CCC(n2c(=O)n(C)c3cnc4ccc(-c5cccc6[nH]ncc56)nc4c32)CC1 | 444 (≈ 209 µg/mL) | 4.6 | – | –
5 | COc1ccc(-c2ccc3ncc4c(c3n2)n(C2CCN(C)CC2)c(=O)n4C)cn1 | – | 6.65 | 76 | 4.46
6 | COc1ccc(-c2ccc3ncc4c(c3n2)n(C2CCN(C(C)=O)CC2)c(=O)n4C)cn1 | 22 (≈ 9.51 µg/mL) | 16.3 | – | –
7 | CC(=O)N1CCC(n2c(=O)n(C)c3cnc4ccc(-c5cccc6[nH]ncc56)nc4c32)CC1 | 55.5 (≈ 24.5 µg/mL) | 8.56 | – | –
8 | CC(=O)N1CCC(n2c(=O)n(C)c3cnc4ccc(-c5cnc6[nH]ncc6c5)nc4c32)CC1 | – | 3.97 | – | –
9 | COc1ccc(-c2ccc3ncc4c(c3n2)n([C@H]2CC[C@H](OCCO)CC2)c(=O)n4C)cn1 | 117 (≈ 52.6 µg/mL) | 14.3 | – | –
10 | COCC(=O)N1CCC(n2c(=O)n(C)c3cnc4ccc(-c5ccc(C)nc5)nc4c32)CC1 | – | 20.2 | – | –
11 | COc1ccc(-c2ccc3ncc4c(c3n2)n(-c2ccc(C(C)(C)C#N)cc2)c(=O)n4C)cn1 | 2 (≈ 0.901 µg/mL) | 0.305 | – | –
12 | Cc1ccc(-c2ccc3ncc4c(c3n2)n(C2CCN(C(=O)CO)CC2)c(=O)n4C)cn1 | – | 18.2 | – | –
